Data as given in US11041859B2, “Methods of identifying SENP1 inhibitors” (priority 2013, dated 2021).

Tested on: HeLa cells
Test: Accumulation of SUMOylated proteins in HeLa cells (Western blot, 48 hours)
Type: cell-based

SMILES: Nc1ccc2ccccc2c1/N=N/c1ccc(/C=C/c2ccc(/N=N/c3c(N)ccc4ccccc34)cc2S(=O)(=O)O)c(S(=O)(=O)O)c1 [SPI-01]
- accumulation of SUMO-1 conjugates in cells: less significant effects
- accumulation of SUMO-2/3 conjugates in cells (increasing concentrations): accumulation correlated with inhibitor concentration
